Reference: patent US20060223812A1, “Treating neurodegenerative conditions” (MAX-PLANCK-GESELLSCHAFT ZUR FORDERUNGDER WISSENSCHAFTEN, …, priority 2004, published 2006)

Biological target: htau40 and tubulin dimer (Homo sapiens, UniProt P10636)
Test: Light scattering, tau-promoted microtubule assembly
Format: biochemical
Settings: 60 μM compound, 10 μM tau, 30 μM tubulin
Protocol: The repeat domain of tau is not only important for PHF aggregation but also for the physiological function of microtubule binding. Microtubule polymerisation assays were performed in the absence and presence of compounds (FIG. 9).
The ability of tau to promote microtubule assembly was monitored by light scattering at 350 nm in a Tecan spectrophotometer model Safire (Tecan, Crailsheim, Germany). Tau protein (10 μM) was mixed with tubulin dimer (30 μM) and GTP (1 mM) at 4° C. in polymerisation buffer (100 mM Na-PIPES pH 6.9, 1 mM EGTA, 1 mM MgSO4, 1 mM DTT), with a final volume of 40 μl. Htau40 and inhibitor compounds (60 μM) were added last. After rapid mixing, the samples were pipetted into a Greiner transparent flat bottom 384 well plate (4 mm path length), which was prewarmed at 37° C. The reaction was started by incubating the cooled components of the reaction at 37° C. The assembly of tubulin into microtubules was monitored over time by a change in turbidity. Three parameters were extracted from curves. The maximum turbidity at steady state, the rate of assembly, and the lag time between the temperature jump and the start of the turbidity rise.
FIG. 9: Effect of compounds on microtubule binding 30 μM tubulin dimer was incubated in a microtiter plate at 37° C. in the absence and presence of htau40 (10 μM) and 60 μM compound. Absorbance was taken at 350 nm and plotted versus time. […]

htau40 and tubulin dimer, sequence (P10636 1-441 isoform P10636-8): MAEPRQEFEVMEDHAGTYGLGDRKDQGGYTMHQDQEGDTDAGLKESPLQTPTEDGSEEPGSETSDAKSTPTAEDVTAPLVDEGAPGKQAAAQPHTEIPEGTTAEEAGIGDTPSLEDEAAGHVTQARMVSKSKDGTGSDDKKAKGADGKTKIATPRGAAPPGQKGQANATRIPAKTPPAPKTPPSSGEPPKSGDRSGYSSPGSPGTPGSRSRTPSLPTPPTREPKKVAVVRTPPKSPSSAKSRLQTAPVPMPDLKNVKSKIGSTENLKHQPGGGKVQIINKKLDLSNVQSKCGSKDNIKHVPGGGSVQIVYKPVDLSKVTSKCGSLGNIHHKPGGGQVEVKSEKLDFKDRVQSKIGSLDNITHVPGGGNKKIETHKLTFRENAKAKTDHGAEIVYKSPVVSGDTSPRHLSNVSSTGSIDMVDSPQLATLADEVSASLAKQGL

Q: How did the “rate and extent of microtubule polymerisation” value turn out when `Nc1c(/N=N/c2ccc(-c3ccc(/N=N/c4cc(S(=O)(=O)O)c5ccccc5c4N)cc3)cc2)cc(S(=O)(=O)O)c2ccccc12` [Congo Red] was run?
A: not significantly affected
